Series [1] can be described thus: Single- and multiple-dose plasma pharmacokinetics of GA and PCA after oral RLQ in healthy subjects. The series is classed as in vivo, human. To be noted: LC-MS/MS after oral RLQ. As to the method:
The study protocol was approved by the Ethics Committee of the Second Affiliated Hospital of Tianjin University of Traditional Chinese Medicine. […] Subjects were offered standard meals at 4 and 10 h after dosing. Water was not permitted during the hour before and the hour after dosing, except for 240 mL administered with dosing; additional water intake was allowed at all other times.
In the single-dose study, 8 g of RLQ was administered orally on day 1. A 7-d washout time was designed between single-dose and multiple-dose pharmacokinetic studies. In the multiple-dose study, subjects received multiple doses of RLQ (8 g, t.i.d.) for seven consecutive days from day 8 to day 14 and a single dose of RLQ (8 g) on the morning of day 15. […] Additional pre-dose samples were collected in the morning on days 12, 13 and 14. […] All samples were stored at −80 °C until analysis.
All analytes were extracted from plasma and urine samples by simple protein precipitation extraction method using acetonitrile. Briefly, 5 µL of internal standard solution and 300 μL of acetonitrile were added to the spiked blank matrix (100 μL) and vortexed for 3 min and then centrifuged at 13,000 × g for 10 min. The supernatant was transferred and dried using a flow of nitrogen. The residue was re-dissolved in 100 µL of 10% methanol solution containing 0.1% formic acid. An aliquot of 5 µL solution was injected into the LC-MS/MS system for analysis.
The chromatographic separation was performed on an Acquity Ultra Performance LC instrument (Waters, Milford, MA) with a gradient programme in an ACQUITY UPLC BEH C18 column (2.1 mm × 100 mm, 1.7 μm). […] The injection volume was 2 µL. The mass spectrometry analysis was performed on an AB Sciex Triple Quad 5500 MS (Framingham, MA) equipped with an ESI source.
The peak plasma concentration (Cmax) and time to reach the peak plasma concentration (Tmax) were calculated from the actual plasma concentration data. The area under the plasma concentration-time curve from zero to the last measurable concentration (AUC0–t) was calculated via the linear trapezoidal rule. AUC0–∞ was calculated using the following formula: AUC0–∞ = AUC0–t + Ct/ke, where Ct is the last plasma concentration measured. […] The accumulation index was calculated as AUCss/AUC0–t.

In another series the target is T1, BCRP (Homo sapiens, UniProt Q9UNQ0).
T1 sequence (Q9UNQ0 1-655): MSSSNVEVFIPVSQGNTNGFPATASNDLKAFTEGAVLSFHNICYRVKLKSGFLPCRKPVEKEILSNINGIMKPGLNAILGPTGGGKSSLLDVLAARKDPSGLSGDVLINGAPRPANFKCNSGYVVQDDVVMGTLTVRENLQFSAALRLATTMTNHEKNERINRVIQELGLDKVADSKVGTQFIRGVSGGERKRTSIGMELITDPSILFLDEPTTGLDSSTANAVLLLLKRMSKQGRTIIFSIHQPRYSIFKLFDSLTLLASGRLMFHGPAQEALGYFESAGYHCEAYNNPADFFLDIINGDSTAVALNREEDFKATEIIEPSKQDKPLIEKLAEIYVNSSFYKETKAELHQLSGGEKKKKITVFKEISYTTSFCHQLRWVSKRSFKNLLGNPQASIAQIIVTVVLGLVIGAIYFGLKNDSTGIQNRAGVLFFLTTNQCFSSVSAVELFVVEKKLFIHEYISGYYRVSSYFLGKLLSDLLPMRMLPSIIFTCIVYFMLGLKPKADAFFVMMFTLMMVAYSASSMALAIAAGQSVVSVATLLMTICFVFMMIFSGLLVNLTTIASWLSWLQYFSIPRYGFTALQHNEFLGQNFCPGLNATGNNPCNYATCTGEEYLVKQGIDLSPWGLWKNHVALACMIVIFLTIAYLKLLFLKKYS
Details: method as in Ebert et al. 2006. Conditions: Caco-2 cells pre-treated with quercetin, ref Ebert et al. 2006; cited from earlier work.

For `O=c1c(O)c(-c2ccc(O)cc2)oc2cc(O)cc(O)c12` [kaempferol], in series [1], the “response in human plasma and urine samples” value is recorded as “little or no response”.

In the case of `O=c1c(O)c(-c2ccc(O)c(O)c2)oc2cc(O)cc(O)c12` [quercetin], the “apical transport of BCRP-mediated benzo(a)pyrene-3-sulphate” value on BCRP was “increase”. In series [1], the “response in human plasma and urine samples” value is listed as “little or no response”.
